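Grown in 96-well plates, cells were treated for 48 hours with each compound at five concentrations. Insufficient inhibition: endpoint recorded as highest concentration tested. The concentration for 50% growth inhibition is given as GI50.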 The source made the active and inactive calls. Cut-off read from the data, not from the text of the source: active = GI50 up to about 1.1 µM and inactive = higher.
Assays:
Assay in all cases: DTP human tumour cell line panel, 48 h
SK-MEL-28 = tested on: SK-MEL-28
HCT-116 = tested on: HCT-116
NCI-H226 = tested on: NCI-H226
SK-OV-3 = tested on: SK-OV-3
HL-60 = tested on: HL-60
UO-31 = tested on: UO-31
SF-539 = tested on: SF-539
MOLT-4 = tested on: MOLT-4
UACC-62 = tested on: UACC-62
CCRF-CEM = tested on: CCRF-CEM
NCI-H460 = tested on: NCI-H460
HOP-92 = tested on: HOP-92
DLD-1 = tested on: DLD-1
LOX IMVI = tested on: LOX IMVI
NCI-H522 = tested on: NCI-H522
U-251 = tested on: U-251
SNB-78 = tested on: SNB-78
SR = tested on: SR
HT-29 = tested on: HT-29
KM12 = tested on: KM12
OVCAR-4 = tested on: OVCAR-4
OVCAR-5 = tested on: OVCAR-5
OVCAR-3 = tested on: OVCAR-3
IGROV-1 = tested on: IGROV-1
K562 = tested on: K562
CAKI-1 = tested on: CAKI-1
DMS-114 = tested on: DMS-114
ACHN = tested on: ACHN
TK-10 = tested on: TK-10
SK-MEL-2 = tested on: SK-MEL-2
RPMI-8226 = tested on: RPMI-8226
M19-MEL = tested on: M19-MEL
EKVX = tested on: EKVX
DMS-273 = tested on: DMS-273
UACC-257 = tested on: UACC-257
LXFL 529 = tested on: LXFL 529
SF-268 = tested on: SF-268
HCT-15 = tested on: HCT-15
KM-20L2 = tested on: KM-20L2
SNB-19 = tested on: SNB-19
NCI-H23 = tested on: NCI-H23
SK-MEL-5 = tested on: SK-MEL-5
A549 = tested on: A549
786-0 = tested on: 786-0
XF498 = tested on: XF498
M14 = tested on: M14
OVCAR-8 = tested on: OVCAR-8
HCC 2998 = tested on: HCC 2998
SW-620 = tested on: SW-620
Malme-3M = tested on: Malme-3M
SF-295 = tested on: SF-295
SN12C = tested on: SN12C
HOP-62 = tested on: HOP-62
COLO 205 = tested on: COLO 205
Hs-578T = tested on: Hs-578T
PC-3 = tested on: PC-3
MDA-MB-231 = tested on: MDA-MB-231
MDA-N = tested on: MDA-N
RXF 393 = tested on: RXF 393
T47D = tested on: T47D
DU-145 = tested on: DU-145
BT-549 = tested on: BT-549
SNB-75 = tested on: SNB-75
A498 = tested on: A498
NCI/ADR-RES = tested on: NCI/ADR-RES
MDA-MB-435 = tested on: MDA-MB-435
MCF7 = tested on: MCF7

SMILES: COc1ccc(/C=C/C(C(=O)O)C(=O)O)cc1
- GI50 (SK-MEL-28): 22.5 µM (inactive)
- GI50 (HCT-116): > 100 µM (inactive)
- GI50 (NCI-H226): > 100 µM (inactive)
- GI50 (SK-OV-3): > 100 µM (inactive)
- GI50 (HL-60): 24.3 µM (inactive)
- GI50 (UO-31): 64.3 µM (inactive)
- GI50 (SF-539): > 100 µM (inactive)
- GI50 (MOLT-4): 25.8 µM (inactive)
- GI50 (UACC-62): 49.2 µM (inactive)
- GI50 (CCRF-CEM): 26.2 µM (inactive)
- GI50 (NCI-H460): > 100 µM (inactive)
- GI50 (HOP-92): 72.1 µM (inactive)
- GI50 (DLD-1): > 100 µM (inactive)
- GI50 (LOX IMVI): 16.1 µM (inactive)
- GI50 (NCI-H522): 30.8 µM (inactive)
- GI50 (U-251): > 100 µM (inactive)
- GI50 (SNB-78): 48.1 µM (inactive)
- GI50 (SR): 34.8 µM (inactive)
- GI50 (HT-29): 78.9 µM (inactive)
- GI50 (KM12): 50.7 µM (inactive)
- GI50 (OVCAR-4): 35.2 µM (inactive)
- GI50 (OVCAR-5): 78.5 µM (inactive)
- GI50 (OVCAR-3): 47.9 µM (inactive)
- GI50 (IGROV-1): > 100 µM (inactive)
- GI50 (K562): 32.4 µM (inactive)
- GI50 (CAKI-1): > 100 µM (inactive)
- GI50 (DMS-114): > 100 µM (inactive)
- GI50 (ACHN): 92 µM (inactive)
- GI50 (TK-10): > 100 µM (inactive)
- GI50 (SK-MEL-2): > 100 µM (inactive)
- GI50 (RPMI-8226): 32.8 µM (inactive)
- GI50 (M19-MEL): 61.8 µM (inactive)
- GI50 (EKVX): 78.9 µM (inactive)
- GI50 (DMS-273): > 100 µM (inactive)
- GI50 (UACC-257): 97.9 µM (inactive)
- GI50 (LXFL 529): 36.4 µM (inactive)
- GI50 (SF-268): 67.5 µM (inactive)
- GI50 (HCT-15): 45.6 µM
- GI50 (KM-20L2): 91.6 µM (inactive)
- GI50 (SNB-19): 70.5 µM (inactive)
- GI50 (NCI-H23): > 100 µM (inactive)
- GI50 (SK-MEL-5): 76.6 µM (inactive)
- GI50 (A549): > 100 µM (inactive)
- GI50 (786-0): > 100 µM (inactive)
- GI50 (XF498): > 100 µM (inactive)
- GI50 (M14): 75.7 µM (inactive)
- GI50 (OVCAR-8): > 100 µM (inactive)
- GI50 (HCC 2998): > 100 µM (inactive)
- GI50 (SW-620): 31.5 µM (inactive)
- GI50 (Malme-3M): 69.8 µM (inactive)
- GI50 (SF-295): > 100 µM (inactive)
- GI50 (SN12C): 51.3 µM (inactive)
- GI50 (HOP-62): > 100 µM (inactive)
- GI50 (COLO 205): > 100 µM (inactive)

SMILES: CS(=O)(=O)C(C#N)c1nc2ccccc2nc1Cl (stereo not drawn)
- GI50 (SK-MEL-28): > 100 µM (inactive)
- GI50 (HCT-116): > 100 µM (inactive)
- GI50 (NCI-H226): > 100 µM (inactive)
- GI50 (SK-OV-3): > 100 µM (inactive)
- GI50 (HL-60): > 100 µM (inactive)
- GI50 (UO-31): > 100 µM (inactive)
- GI50 (SF-539): > 28.5 µM (inactive)
- GI50 (Hs-578T): 70.6 µM (inactive)
- GI50 (MOLT-4): > 100 µM (inactive)
- GI50 (PC-3): > 100 µM (inactive)
- GI50 (UACC-62): > 100 µM (inactive)
- GI50 (CCRF-CEM): > 94 µM (inactive)
- GI50 (NCI-H460): > 30.5 µM (inactive)
- GI50 (MDA-MB-231): > 100 µM (inactive)
- GI50 (HOP-92): > 100 µM (inactive)
- GI50 (DLD-1): 4.18 µM (inactive)
- GI50 (LOX IMVI): > 100 µM (inactive)
- GI50 (NCI-H522): > 53.7 µM (inactive)
- GI50 (U-251): > 100 µM (inactive)
- GI50 (MDA-N): > 100 µM (inactive)
- GI50 (SNB-78): > 100 µM (inactive)
- GI50 (SR): > 100 µM (inactive)
- GI50 (HT-29): > 100 µM (inactive)
- GI50 (KM12): > 34.4 µM (inactive)
- GI50 (OVCAR-4): > 73.5 µM (inactive)
- GI50 (OVCAR-5): > 39.9 µM (inactive)
- GI50 (OVCAR-3): > 72.1 µM (inactive)
- GI50 (IGROV-1): > 66.5 µM (inactive)
- GI50 (RXF 393): > 100 µM (inactive)
- GI50 (K562): > 100 µM (inactive)
- GI50 (CAKI-1): > 66.5 µM (inactive)
- GI50 (DMS-114): > 100 µM (inactive)
- GI50 (ACHN): > 100 µM (inactive)
- GI50 (TK-10): > 32.6 µM (inactive)
- GI50 (T47D): > 100 µM (inactive)
- GI50 (SK-MEL-2): > 22.4 µM (inactive)
- GI50 (RPMI-8226): > 100 µM (inactive)
- GI50 (DU-145): > 100 µM (inactive)
- GI50 (BT-549): > 100 µM (inactive)
- GI50 (M19-MEL): 5.68 µM (inactive)
- GI50 (EKVX): > 100 µM (inactive)
- GI50 (SNB-75): > 100 µM (inactive)
- GI50 (DMS-273): > 100 µM (inactive)
- GI50 (UACC-257): > 73.3 µM (inactive)
- GI50 (LXFL 529): > 100 µM (inactive)
- GI50 (SF-268): > 74 µM (inactive)
- GI50 (A498): > 28.1 µM (inactive)
- GI50 (HCT-15): > 35.2 µM
- GI50 (SNB-19): > 100 µM (inactive)
- GI50 (NCI-H23): > 100 µM (inactive)
- GI50 (NCI/ADR-RES): > 36.5 µM (inactive)
- GI50 (A549): > 100 µM (inactive)
- GI50 (XF498): > 100 µM (inactive)
- GI50 (M14): > 100 µM (inactive)
- GI50 (OVCAR-8): > 19.5 µM (inactive)
- GI50 (HCC 2998): > 32.2 µM (inactive)
- GI50 (SW-620): > 100 µM (inactive)
- GI50 (Malme-3M): > 100 µM (inactive)
- GI50 (MDA-MB-435): > 100 µM (inactive)
- GI50 (SF-295): > 100 µM (inactive)
- GI50 (SN12C): > 100 µM (inactive)
- GI50 (MCF7): > 100 µM (inactive)
- GI50 (HOP-62): > 100 µM (inactive)
- GI50 (COLO 205): > 100 µM (inactive)

From ChEMBL document CHEMBL1201862, “PubChem BioAssay data set” (2004)
